Assay results reported in patent publication US5756505A, “N-acylpiperazine derivative, antibacterial drug and anti-ulcer drug” (Shiseido Co., Ltd., priority 1995, dated 1998).
Values after ≈ are worked out from the molar mass of the structure shown. Read-outs that look alike come from different tables or passages of the source.

How the values were obtained:
stress ulcer formation = assay: WIS: Restraint and Water Immersion Stress-Induced Ulcer Inhibition Test; format: in vivo, rat (male Crj:SD or Slc:SD); settings: rat; for WIS: ulcer formation inhibitory rate: 100 mg/kg oral, 7 hours stress; for anti-ulcer effect (in words): in vivo
Method: WIS: Restraint and Water Immersion Stress-Induced Ulcer Inhibition Test
The degree of inhibition of the stress ulcer formation is tested.
Male Crj:SDor Slc:SD rats (6 to 7-week-old) were fasted overnight, but allowed free access to water. Each group has 5 to 8 of these rats. The sample compound was dissolved or suspended in an aqueous solution of 0.3% sodium carboxymethylcellulose or 0.05% Tween 80 and then was orally administered (100 mg/10 ml/kg). To a control group, the vehicle was administered. 10 minuts later, the rats were placed in a stress cage and immersed to the level of xipfoid process in a water bath (21° C.) for 7 hours. At the end of the stress, the rats were sacrificed by inhalation of ether or carbon dioxide. Then, the stomach of each was removed, inflated by injecting 10 ml of 5% formalin neutral buffer solution, and immersed in 1% formalin neutral buffer solution for 30 minutes or more to be fixed. The stomach was incised along the greater curvature and then the length of each erosion in the glandular portion was determined under dissecting microscope. The sum of the length of erosions per stomach was defined as ulcer index (UI).
The effect obtained when 100 mg/kg of the sample compound had been administered was expressed as ulcer formation inhibitory rate (%) as follows:
ulcer formation inhibitory rate (%)=[1-(UI in sample group/UI in control group)]×100

[1] = MTT: Cell Damaging and Protecting Effect Test; format: cell-based, rabbit (male Japanese White); settings: rabbit, gastric mucosal cells
Excerpt: MTT: Cell Damaging and Protecting Effect Test
It is confirmed that there is no toxicity in cell level. Those having a toxicity in cell level are inappropriate as an anti-ulcer drug.
A male Japanese White rabbit (2.5 to 3 kg) was anesthetized to death by Nembutal™ and, immediately thereafter, its stomach was removed. The greater curvature of the stomach was incised so as to remove the stomach contents therefrom. After the mucosal surface was washed with HBSS (Hanks' Balanced Salt Solution), the stomach in ice-cooled HBSS was transferred to a laboratory. Then, after the pyloric antrum was removed, the gastric corpus mucosa was separated by a spatula and then minced into 2 to 3 mm^3 pieces in BME (Basal Medium Eagle). Thereafter, these pieces were shaken at 120 to 130 cycles/minute for 15 minutes at 37° C. in BME 60ml containig 280 U/ml of dispase and 30 to 50 U/ml of collagenase. Here, the concentration of collagenase was appropriately changed for each lot in view of the state of cells. The pieces were washed twice with EBSS (Earle's Balanced Salt Solution) containing 1 mM of EDTA and then shaken in MEM (Minimum Essential Medium) containing 1 mM of EDTA at 37° C. for 5 minutes. Subsequently, they were shaken in the dispase and collagenase having the same concentrations as those mentioned above for 15 minutes so as to remove the supernatant and then further shaken at 37° C. for 50 to 60 minutes at 120 to 130 cycles/minute. Then, after being washed twice with HBSS, Ham F12 containing 2% of Ultrocer G™ was used to attain the concentration of 1×10^6 cells/ml. Thus formed suspension was dispensed in each well of a 96-well plate by 200 μl. The plate was incubated in the atmosphere composed of 5% CO2 and 95% air at 37° C. for three days so as to attain a confluent state and then subjected to MTT assay.
The sample compound was dissolved in DMSO so as to attain a concentration of 10^-2 M and then diluted with HBSS containing 2% of Ultrocer G™ so as to attain a final concentration of 10^-4 M. To each group, which 8 wells were used for, 10 μl of MTT reagent were added immediately after 100 μl of the medium in each well were exchanged for same volume of the resulting solution of the sample compound. After being incubated in an atmosphere composed of 5% CO2 and 95% air at 37° C. for 4 hours, thus formed solution was centrifuged and then its supernatant was discarded. Subsequently, 100 μl of 100% ethanol were added to the residue so as to dissolve MTT formazan. Then, the absorbance (OD: 570 to 630) was measured by a microplate reader. This method utilizes a phenomenon in which MTT is changed to MTT formazan only by mitochondria of living cells so as to change color.
The cell damaging or cell protecting effect of the sample compound at the final concentration of 10^-4 M was expressed as cell damaging rate (%) as follows:
cell damaging rate (%)=[1-(absorbance in sample group/absorbance in control group)]×100
Accordingly, the smaller value is better in the cell damaging rate.

Helicobacter pyroli = assay: AHP: Antibacterial Activity Test Against Helicobacter pyroli; format: cell-based, Helicobacter pyroli NCTC 11637; settings: for MIC: Helicobacter, NCTC11637, 168 h, H. pyroli NCTC 11637, agar dilution, 7 days, read-out: AHP: minimum inhibitory concentration (MIC)
Method: AHP: Antibacterial […] Against Helicobacter pyroli i)Meaning The minimum inhibitory concentration (MIC) against Helicobacter pyroli (microaerophilic gram-negative bacterium which is supposed to deeply involve in pathogenesis, relapse, and recrudescence of ulcer, referred to as "HP" in the following) is measured so as to find out compounds which have antimicrobial activity against Helicobacter pyroli. ii)Method MICs were determined by the agar dilution method. […] Grown colonies were transfered to the same plate and cultured for 3 days under the same condition. […] A 1,000 μg/ml solution of the sample compound containing DMSO not more than 25% was […] diluted 2-fold in sterile purified water. 100 μl volume from each dilution was mixed thoroughly with 900 μl of brucella agar supplemented with 5% horse blood and solidified in a 24 well micro plate. 10 μl of the bacterial suspension (about 10^3 cfu) was inoculated on this plate and cultured for 7 days under the same condition as that of preculture.

[2] = final concentration 10^-4 M, 4 hours, smaller value is better, read-out: MTT: cell damaging rate

| SMILES | WIS: ulcer formation inhibitory rate (stress ulcer formation) | cytotoxicity at 4 h, 100 µM [1, 2] | MIC (Helicobacter pyroli) | anti-ulcer effect (in words) (stress ulcer formation) | cytotoxicity at 4 h, 100 µM ([1]; MTT: cell damaging rate) | antibacterial activity against Helicobacter pyroli (in words) (Helicobacter pyroli) |
| --- | --- | --- | --- | --- | --- | --- |
| CC(C)CN1CCN(C(=O)c2ccc(OCc3ccc(F)cc3)cc2)CC1.Cl [Example 2, 1-[4-(4-fluorobenzyloxy)benzoyl]-4-isobutylpiperazine hydrochloride] | 79% |  |  |  |  |  |
| CC(C)CN1CCN(C(=O)c2ccc(OCc3ccccc3)cc2)CC1 [Example 3, 1-(4-benzyloxybenzoyl)-4-isobutylpiperazine] | 69% | -16% |  |  |  |  |
| C=C(C)Cc1cc(C(=O)N2CCN(CC(C)C)CC2)ccc1OCc1ccc(F)cc1.Cl [Example 4, 1-[4-(4-fluorobenzyloxy)-3-methallylbenzoyl]-4-isobutylpiperazine hydrochloride] | 65% | -67% | 25 µg/mL |  |  |  |
| CC(C)CN1CCN(C(=O)c2ccc(OCc3ccc(F)cc3)cc2)CC1 [Example 5, 1-[4-(4-fluorobenzyloxy)benzoyl]-4-isobutylpiperazine] | 59% |  | 12.5 µg/mL (≈ 33.7 µM) |  |  |  |
| CC(C)Cc1cc(C(=O)N2CCN(C(=O)C(C)C)CC2)ccc1OCc1ccc(F)cc1 [Example 6, 1-[4-(4-fluorobenzyloxy)-3-isobutylbenzoyl]-4-isobutyrylpiperazine] | 56% | -29% | < 3.13 µg/mL | sufficient effects |  |  |
| CC(C)CN1CCN(C(=O)c2ccc(OCc3ccc(F)cc3)c([N+](=O)[O-])c2)CC1.Cl [Example 8, 1-[4-(4-fluorobenzyloxy)-3-nitrobenzoyl]-4-isobutylpiperazine hydrochloride] | 35% | -65% |  |  |  |  |
| CC(C)Cc1cc(C(=O)N2CCN(CCO)CC2)ccc1OCc1ccc(F)cc1 [Example 9, 1-[4-(4-fluorobenzyloxy)-3-isobutylbenzoyl]-4-(2-hydroxyethyl)piperazine] | 88% | 26% |  | sufficient effects |  |  |
| Cc1cccc(COc2ccc(C(=O)N3CCN(CC(C)C)CC3)cc2CC(C)C)c1F.Cl [Example 12, 1-[4-(2-fluoro-3-methylbenzyloxy)-3-isobutylbenzoyl]-4-isobutylpiperazine hydrochloride] | 83% | -15% |  |  |  |  |
| CC(C)Cc1cc(C(=O)N2CCN(CC(C)C)CC2)ccc1OCc1ccc([N+](=O)[O-])cc1.Cl [Example 13, 1-isobutyl-4-[3-isobutyl-4-(4-nitrobenzyloxy)benzoyl]piperazine hydrochloride] | 77% | -66% | 12.5 µg/mL |  |  |  |
| COc1ccc(COc2ccc(C(=O)N3CCN(CC(C)C)CC3)cc2CC(C)C)cc1 [Example 14, 1-isobutyl-4-[3-isobutyl-4-(4-methoxybenzyloxy)benzoyl]piperazine] | 76% | 11% | 25 µg/mL (≈ 57 µM) |  |  |  |
| CC(C)Cc1cc(CC(=O)N2CCN(CC(C)C)CC2)ccc1OCc1ccccc1 [Example 15, 1-(4-benzyloxy-3-isobutylphenylacetyl)-4-isobutylpiperazine] | 71% |  |  | sufficient effects were observed | -55% |  |
| CC(C)Cc1cc(C(=O)N2CCN(CC(C)C)CC2)ccc1OCc1ccccc1 [Example 16, 1-(4-benzyloxy-3-isobutylbenzoyl)-4-isobutylpiperazine] | 72% | -98% | 50 µg/mL (≈ 122 µM) |  |  |  |
| CC(C)Cc1cc(C(=O)N2CCN(CC(C)C)CC2)ccc1OCc1ccccc1F [Example 18, 1-[4-(2-fluorobenzyloxy)-3-isobutylbenzoyl]-4-isobutylpiperazine] | 64% |  | 12.5 µg/mL (≈ 29.3 µM) |  |  |  |
| CC(C)Cc1cc(C(=O)N2CCN(CC(C)C)CC2)ccc1OCc1ccccc1F.Cl [Example 19, 1-[4-(2-fluorobenzyloxy)-3-isobutylbenzoyl]-4-isobutylpiperazine hydrochloride] | 64% |  |  |  |  |  |
| CC(C)Cc1cc(CN2CCN(CC(C)C)CC2)ccc1OCc1ccc(F)cc1.Cl.Cl [Example 20, 1-[4-(4-fluorobenzyloxy)-3-isobutylbenzyl]-4-isobutylpiperazine dihydrochloride] | 82% | 45% |  | effects were observed |  |  |
| CC(C)Cc1cc(C(=O)N2CCN(CC(C)C)CC2)ccc1OCc1ccc(F)cc1 [Example 21, 1-[4-(4-fluorobenzyloxy)-3-isobutylbenzoyl]-4-isobutylpiperazine] | 84% |  |  | improved |  | improved |
| CC(C)Cc1cc(C(=O)N2CCN(CC(C)C)CC2)ccc1OCc1ccc(F)cc1.Cl [Example 22, 1-[4-(4-fluorobenzyloxy)-3-isobutylbenzoyl]-4-isobutylpiperazine hydrochloride] | 85% |  | 12.5 µg/mL | improved |  | improved |
| CC(C)Cc1cc(C(=O)N2CCN(CC(C)C)CC2)ccc1OCc1ccc(F)cc1F.Cl [Example 24, 1-[4-(2,4-difluorobenzyloxy)-3-isobutylbenzoyl]-4-isobutylpiperazine hydrochloride] | 72% |  | 6.25 µg/mL |  |  |  |
| CC(C)Cc1cc(C(=O)N2CCN(CC(C)C)CC2)ccc1OCc1ccc(F)cc1.O=C(O)C(=O)O [Example 25, 1-[4-(4-fluorobenzyloxy)-3-isobutylbenzoyl]-4-isobutylpiperazine oxalate] | 70% |  | 12.5 µg/mL |  |  |  |
| CC(C)Cc1cc(C(=O)N2CCN(CC(C)C)CC2)ccc1OCc1ccc(F)c(F)c1 [Example 26, 1-[4-(3,4-difluorobenzyloxy)-3-isobutylbenzoyl]-4-isobutylpiperazine] | 63% |  | 12.5 µg/mL (≈ 28.1 µM) |  |  |  |
| CC(C)Cc1cc(C(=O)N2CCN(CC(C)C)CC2)ccc1OCc1ccc(F)cc1F [Example 27, 1-[4-(2,4-difluorobenzyloxy)-3-isobutylbenzoyl]-4-isobutylpiperazine] | 60% |  | 6.25 µg/mL (≈ 14.1 µM) |  |  |  |
